From PubChem BioAssay (NCI)
“And” between values parts separate entries of the source, which are not always exact repeats. Equal values may be shown once.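 Results reflect a 48-hour exposure of cells in 96-well plates to compound at five concentrations. GI50 is the concentration that inhibits growth by half. Definition used: TGI = concentration required for complete inhibition of growth.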

What was measured:
Assay in all cases: NCI-60 cell line screen, 48 h
MOLT-4 leukemia = test system: MOLT-4 leukemia
EKVX NSCLC = test system: EKVX NSCLC
NCI-H522 lung = test system: NCI-H522 lung
OVCAR-5 ovarian = test system: OVCAR-5 ovarian
HT29 colon = test system: HT29 colon
IGROV1 ovarian = test system: IGROV1 ovarian
K-562 leukemia = test system: K-562 leukemia
SK-MEL-5 melanoma = test system: SK-MEL-5 melanoma
MDA-MB-435 = test system: MDA-MB-435
MDA-MB-231 breast = test system: MDA-MB-231 breast

Compound | TGI (MOLT-4 leukemia) [µM] | TGI (EKVX NSCLC) [µM] | TGI (NCI-H522 lung) [µM] | TGI (OVCAR-5 ovarian) [µM] | TGI (HT29 colon) [µM] | TGI (IGROV1 ovarian) [µM] | TGI (K-562 leukemia) [µM] | TGI (SK-MEL-5 melanoma) [µM] | GI50 (MOLT-4 leukemia) | GI50 (EKVX NSCLC) | GI50 (MDA-MB-435) | TGI (MDA-MB-435) [µM] | GI50 (NCI-H522 lung) | GI50 (K-562 leukemia) | GI50 (OVCAR-5 ovarian) | GI50 (HT29 colon) | GI50 (IGROV1 ovarian) | GI50 (SK-MEL-5 melanoma) | GI50 (MDA-MB-231 breast) [µM] | TGI (MDA-MB-231 breast) [µM]
Cc1c(C(=O)/C=C/c2ccc(N(C)C)cc2)c(=O)n(-c2ccccc2)n1C | > 100 | > 100 | > 100 | > 100 | > 100 | > 100 | – | – | – | – | – | – | – | – | – | – | – | – | – | –
C[N+](C)(C)CC(=O)N/N=C(\C(=O)NC1=C(Cl)C(=O)c2ccccc2C1=O)C(C#N)c1csc(-c2ccc([N+](=O)[O-])cc2)n1 (stereo not drawn) | > 100 | > 100 | > 100 | > 100 | > 100 | > 100 | > 100 | > 100 | – | – | – | – | – | – | – | – | – | – | – | –
CCc1cccc(CC)c1NC(=O)C1=C(C)NC(C)=C(C(=O)Nc2c(CC)cccc2CC)C1c1ccc([N+](=O)[O-])cc1 | 43.3 | 78.3 | 40.2 | > 100 | 40 | 52.4 | 93.5 | 33 | – | – | – | – | – | – | – | – | – | – | – | –
O=c1c2cccc3cccc(c4n1CCN=4)c32 | > 100 | > 100 | > 100 | > 100 | > 100 | > 100 | > 100 | > 100 | – | – | – | – | – | – | – | – | – | – | – | –
COc1ccc(OC)c(-c2cc(-c3ccc(Cl)cc3)nn2-c2ccc(S(=O)(=O)NC(C)=O)cc2)c1 | 27.8 | 28 | > 100 | 19.3 | > 100 | > 100 | > 100 | 15.5 | 5.62 µM | 14.3 µM | 45.3 µM | > 100 | 32.4 µM | 3.18 µM | 5.97 µM | 5.54 µM | 37.2 µM | 2.07 µM | – | –
CO[C@H](C(=O)[C@@H](O)[C@@H](C)O)[C@@H]1Cc2cc3cc(OC4CC(OC5CC(O)C(O)C(C)O5)C(O)C(C)O4)c(C)c(O)c3c(O)c2C(=O)[C@H]1OC1CC(OC2CC(OC3CC(C)(O)C(O)C(C)O3)C(O)C(C)O2)C(O)C(C)O1 (stereo partly drawn) | – | – | – | – | – | – | – | – | 0.0223 µg/mL | 0.042 µg/mL and 0.0335 µg/mL | 0.0222 µg/mL and 0.0246 µg/mL and 1.25 µM | – | 0.0143 µg/mL and 0.0124 µg/mL | 0.0253 µg/mL and 0.017 µg/mL | 0.0328 µg/mL and 0.113 µg/mL | 0.029 µg/mL and 0.0205 µg/mL | 0.0472 µg/mL and 0.0289 µg/mL | 0.0199 µg/mL | – | –
COc1cc(CNc2ccccc2C(=O)N2CCN(C(=O)c3cc(-c4cc(OC)c(OC)c(OC)c4)n4nc(-c5ccccc5)cc4n3)CC2)cc(OC)c1OC | > 100 | > 100 | > 100 | > 100 | 12 | > 100 | > 100 | 3.91 | 3.32 µM | 4.96 µM | – | – | 2.22 µM | 1.56 µM | 10.9 µM | 3.5 µM | 7.73 µM | 1.58 µM | 7.02 | 67.8
COC(=O)C(Cc1nc2ccccc2[nH]c1=O)C(=O)C(=O)Nc1ccc([N+](=O)[O-])cc1[N+](=O)[O-] (stereo not drawn) | 59.1 | 51.2 | 20.8 | 51 | 35 | 55.4 | > 100 | 33.1 | – | – | – | – | – | – | – | – | – | – | – | –
CCc1cc(CCC(=O)Nc2c(C)cccc2C)[nH]n1 | > 100 | > 100 | > 100 | > 100 | > 100 | > 100 | > 100 | > 100 | – | – | – | – | – | – | – | – | – | – | – | –
CCC(CNc1cc(OC)cc2cccnc12)NC1CCCCC1 (stereo not drawn) | > 100 | > 100 | – | > 100 | – | 44.9 | 53.8 | 30.6 | 36 µM | 40.1 µM | 32.6 µM | > 100 | – | 7.68 µM | 61 µM | – | 10.6 µM | 15.8 µM | 40.7 | > 100
CN(C)C=C1C(Cl)=C(C=O)CC(C=O)=C1Cl | 10.2 | 54.3 | 4.14 | 30 | 30 | 33 | 13.8 | 23.5 | – | – | – | – | – | – | – | – | – | – | – | –
COc1ccc(C2SCC(=O)N2NC(=O)c2ccc(NC(C)=O)cc2)cc1 (stereo not drawn) | > 100 | > 100 | – | > 100 | > 100 | > 100 | > 100 | > 100 | – | – | – | > 100 | – | – | – | – | – | – | – | > 100
Cc1cc(Cl)ccc1NC(=O)C(=O)C(C(=O)c1ccc2ccccc2c1)C1OC(=O)c2ccccc21 (stereo not drawn) | – | 75.9 | 23.4 | 48.4 | 72.6 | > 100 | 33.8 | 26.9 | – | – | – | – | – | – | – | – | – | – | – | –
CCOC(=N)CC(=O)c1ccccc1 | > 100 | > 100 | > 100 | > 100 | > 100 | > 100 | > 100 | > 100 | – | – | – | – | – | – | – | – | – | – | – | –
CCCN(CCCC(NC(C)=O)C(=O)NCc1ccccc1)C(=O)NCCCl (stereo not drawn) | > 100 | > 100 | > 100 | – | > 100 | > 100 | > 100 | – | – | – | – | – | – | – | – | – | – | – | – | –
COc1cc(CNC2c3cc4c(cc3C(c3cc(OC)c(OC)c(OC)c3)[C@H]3C(=O)OCC23)OCO4)cc(OC)c1OC (stereo partly drawn) | > 100 | – | 0.262 | > 100 | 19.5 | > 100 | > 100 | 0.538 | – | – | – | – | – | – | – | – | – | – | – | –
COc1cccc(NC(=O)c2sc3nc4c(cc3c2N)C(=O)CCC4)c1 | > 100 | – | 2.41 | > 100 | > 100 | > 100 | > 100 | > 100 | 0.553 µM | – | 0.0221 µM | 0.0548 | 0.0499 µM | 0.0513 µM | 0.635 µM | 0.0866 µM | 0.381 µM | 0.064 µM | 0.209 | 7.59
CSc1n[n+]2c(s1)SCCC2 | > 100 | – | > 100 | > 100 | > 100 | > 100 | > 100 | > 100 | – | – | – | – | – | – | – | – | – | – | – | –
CC(=O)On1c(-c2ccccc2-c2nc3ccccc3n2OC(C)=O)nc2ccccc21 | 71.1 | – | 51.5 | > 100 | – | > 100 | > 100 | 13.7 | – | – | – | > 100 | – | – | – | – | – | – | – | > 100
N#C/C(=C1\SC(N=Nc2ccccc2)C(=O)N1c1ccccc1)c1nc2ccccc2[nH]1 (stereo not drawn) | > 100 | > 100 | > 100 | > 100 | > 100 | > 100 | > 100 | > 100 | – | – | – | – | – | – | – | – | – | – | – | –
